Results as given in ChEMBL document CHEMBL3734667 (Bioorg Med Chem, 2015).

What was measured:
Influenza B virus = assay: Antiviral activity against Influenza B virus; assay type: functional
[1] = test system: Bovine viral diarrhea virus 1; assay: Antiviral activity against BVDV infected in MDBK cells assessed as inhibition of virus-induced cytopathogenicity after 3 to 4 days by MTT assay; assay type: functional, organism-based; conditions: Bovine viral diarrhea virus isolates and strains
[2] = test system: Mammalian orthoreovirus 1; assay: Antiviral activity against Reo-1 virus infected in BHK-21 cells assessed as inhibition of virus-induced cytopathogenicity after 3 to 4 days by MTT assay; assay type: functional, cell-based; conditions: Mammalian orthoreovirus 1, BHK-21
[3] = Cytotoxicity against human MT4 cells assessed as cell viability after 96 hrs by MTT assay; assay type: cell-based
[4] = Cytotoxicity against african green monkey Vero 76 cells assessed as cell viability after 48 to 96 hrs by crystal violet staining method; assay type: cell-based; conditions: chlorocebus sabaeus
Human alphaherpesvirus 1 = assay: Antiviral activity against HSV1; assay type: functional, organism-based
Poliovirus 1 = assay: Antiviral activity against Human poliovirus 1 Sabin infected in african green monkey Vero76 cells assessed as inhibition of virus-induced cytopathogenicity by plaque reduction assay; assay type: functional, organism-based; conditions: Enterovirus C, Vero 76
[5] = test system: Vesicular stomatitis virus; assay: Antiviral activity against VSV; assay type: functional, organism-based
Vaccinia virus = assay: Antiviral activity against Vaccinia virus; assay type: functional, organism-based; conditions: Orthopoxvirus vaccinia
[6] = Selectivity index, ratio of CC50 for african green monkey Vero76 cells to EC50 for human CVB5; design: species or system Coxsackievirus B5, Vero 76
Coxsackievirus B5 [7] = assay: Antiviral activity against human CVB5 infected in african green monkey Vero76 cells assessed as inhibition of virus-induced cytopathogenicity after 3 days by plaque reduction assay; assay type: functional, organism-based; conditions: Enterovirus B, Vero 76, 72 h
Coxsackievirus B5 [8] = assay: Ratio of NM176 EC50 to compound EC50 for human CVB5; assay type: functional
Yellow fever virus = assay: Antiviral activity against YFV infected in BHK-21 cells assessed as inhibition of virus-induced cytopathogenicity after 3 to 4 days by MTT assay; assay type: functional, organism-based
[9] = Cytotoxicity against MDBK cells assessed as cell viability after 48 to 96 hrs by MTT assay; assay type: cell-based, Bos taurus; conditions: cattle
[10] = test system: Human immunodeficiency virus 1; assay: Antiviral activity against HIV-1 infected in MT4 cells assessed as inhibition of virus-induced cytopathogenicity after 4 days by MTT assay; assay type: functional, organism-based; conditions: Human immunodeficiency virus 1, MT4, 96 h
Coxsackievirus B5 [11] = assay: Ratio of NM108 EC50 to compound EC50 for human CVB5; assay type: functional
[12] = Cytotoxicity against BHK cells assessed as cell viability after 48 to 96 hrs by MTT assay; assay type: cell-based, Mesocricetus auratus; conditions: hamster
Human orthopneumovirus = assay: Antiviral activity against human RSV infected in african green monkey Vero76 cells assessed as inhibition of virus-induced cytopathogenicity after 5 days by plaque reduction assay; assay type: functional, organism-based; conditions: human respiratory syncytial virus, Vero 76, 120 h
[13] = test system: Respiratory syncytial virus; assay: Antiviral activity against RSV; assay type: functional, organism-based; conditions: human respiratory syncytial virus
[14] = biological target: Peroxisome proliferator-activated receptor alpha (Homo sapiens, UniProt Q07869); assay: Agonist activity at human PPAR alpha in human HepG2 cells after 20 hrs by luciferase reporter assay; assay type: cell-based
Chain of Peroxisome proliferator-activated receptor alpha (Q07869 whole entry): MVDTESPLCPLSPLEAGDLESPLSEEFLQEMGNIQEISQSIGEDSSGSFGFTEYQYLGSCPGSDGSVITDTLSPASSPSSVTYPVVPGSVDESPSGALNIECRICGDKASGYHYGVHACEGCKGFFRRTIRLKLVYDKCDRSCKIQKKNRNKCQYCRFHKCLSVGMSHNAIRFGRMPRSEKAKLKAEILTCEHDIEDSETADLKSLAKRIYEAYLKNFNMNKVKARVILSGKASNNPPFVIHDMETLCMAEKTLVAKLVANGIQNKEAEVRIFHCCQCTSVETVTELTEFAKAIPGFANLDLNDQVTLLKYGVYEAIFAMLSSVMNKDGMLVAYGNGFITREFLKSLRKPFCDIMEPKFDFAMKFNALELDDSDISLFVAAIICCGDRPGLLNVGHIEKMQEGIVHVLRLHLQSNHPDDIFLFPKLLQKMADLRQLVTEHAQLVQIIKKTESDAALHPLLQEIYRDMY

[15] = biological target: Peroxisome proliferator-activated receptor gamma (Homo sapiens, UniProt P37231); assay: Agonist activity at human PPAR gamma in human HepG2 cells after 20 hrs by luciferase reporter assay; assay type: cell-based
Chain of Peroxisome proliferator-activated receptor gamma (P37231 whole entry): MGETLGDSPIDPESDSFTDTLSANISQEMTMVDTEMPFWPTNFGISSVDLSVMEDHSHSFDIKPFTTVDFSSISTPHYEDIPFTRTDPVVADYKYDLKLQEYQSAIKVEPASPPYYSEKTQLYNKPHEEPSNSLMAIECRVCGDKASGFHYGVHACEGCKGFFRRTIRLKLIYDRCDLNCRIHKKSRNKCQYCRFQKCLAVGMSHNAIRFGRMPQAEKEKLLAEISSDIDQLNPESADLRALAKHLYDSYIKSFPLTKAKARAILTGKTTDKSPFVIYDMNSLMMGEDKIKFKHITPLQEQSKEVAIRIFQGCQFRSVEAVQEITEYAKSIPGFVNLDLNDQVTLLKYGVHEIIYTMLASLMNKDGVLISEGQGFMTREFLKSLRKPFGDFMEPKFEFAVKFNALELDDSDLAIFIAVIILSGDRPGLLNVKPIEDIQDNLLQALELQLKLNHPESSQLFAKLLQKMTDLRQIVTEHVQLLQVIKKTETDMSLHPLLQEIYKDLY

[16] = Inhibition of HCV helicase; design: species or system Hepacivirus hominis
West Nile virus = assay: Antiviral activity against WNV infected in BHK-21 cells assessed as inhibition of virus-induced cytopathogenicity after 3 to 4 days by MTT assay; assay type: functional, organism-based
[17] = Selectivity index, ratio of CC50 for african green monkey Vero76 cells to EC50 for human RSV; design: species or system human respiratory syncytial virus, Vero 76
dengue virus type 2 = assay: Antiviral activity against DENV-2 infected in BHK-21 cells assessed as inhibition of virus-induced cytopathogenicity after 3 to 4 days by MTT assay; assay type: functional, organism-based
[18] = Selectivity index, ratio of CC50 for BHK-21 cells to EC50 for DENV-2
[19] = Selectivity index, ratio of CC50 for BHK-21 cells to EC50 for YFV; design: species or system Yellow fever virus
[20] = Selectivity index, ratio of CC50 for african green monkey Vero76 cells to EC50 for human Sb-1; design: species or system Human poliovirus 1 strain Sabin, Vero 76
[21] = Selectivity index, ratio of CC50 for MDBK cells to EC50 for BVDV; design: species or system Bovine viral diarrhea virus 1
Coxsackievirus B2 = assay: Antiviral activity against Human coxsackievirus B2; assay type: functional, organism-based; conditions: Enterovirus B
Semliki Forest virus = assay: Antiviral activity against Semliki forest virus assessed as inhibition of virus growth at 170 uM; assay type: functional

| Structure (SMILES) | EC50 [1] [µM] | CC50 at 96 h [3] [µM] | CC50 [4] [µM] | EC50 (Poliovirus 1) [µM] | EC50 [5] [µM] | EC50 (Vaccinia virus) [µM] | EC50 (Coxsackievirus B5 [7]) [µM] | EC50 (Yellow fever virus) [µM] | CC50 [9] [µM] | EC50 [10] [µM] | CC50 [12] [µM] | EC50 (Human orthopneumovirus) [µM] | other results |
| --- | --- | --- | --- | --- | --- | --- | --- | --- | --- | --- | --- | --- | --- |
| Oc1ccc2nn[nH]c2c1/N=N/c1ccc(Cl)cc1 |  |  |  |  |  |  |  |  |  |  |  |  | EC75 (Influenza B virus): 4.3 µM |
| Cc1ccc2nn(-c3ccc(OCCCC(C)(C)C(=O)O)cc3)nc2c1 | > 100 | 53 | 15 | > 100 | > 100 | > 100 | 0.15 | > 100 | 24 | > 100 | 17 | > 100 | EC50 [2]: > 100 µM; EC50 (Human alphaherpesvirus 1): > 100 µM; Ratio CC50/EC50 [6]: 100; Ratio EC50 (Coxsackievirus B5 [8]): 200; Ratio EC50 (Coxsackievirus B5 [11]): 133 |
| O=c1n(Cc2nc3ccccc3n2CCCCO)c2cnccc2n1C1CC1 |  |  |  |  |  |  |  |  |  |  |  |  | EC50 [13]: 0.01 µM |
| Cc1cc(-n2nc3ccccc3n2)cc(C)c1OC(C)(C)C(=O)O | > 100 | > 100 | ≥ 100 | > 100 | > 100 | > 100 | > 100 | > 100 | > 100 | > 100 | > 100 | > 100 | EC50 [14]: 0.096 µM; EC50 [15]: 0.48 µM |
| CCCn1nc2c(Br)c(Br)c(Br)c(Br)c2n1 |  |  |  |  |  |  |  |  |  |  |  |  | IC50 [16]: 5.8 µM |
| Oc1ccc(-n2nc3ccc(C(F)(F)F)cc3n2)cc1 | 30 | ≥ 100 | > 100 | 80 | > 100 | > 100 | > 100 | 17 | 47 | > 100 | 65 | 10 | EC50 [2]: > 100 µM; EC50 (West Nile virus): > 100 µM; Ratio CC50/EC50 [17]: >10; EC50 (Human alphaherpesvirus 1): > 100 µM; EC50 (dengue virus type 2): 17 µM; Ratio CC50/EC50 [18]: 3.82; Ratio CC50/EC50 [19]: 3.82; Ratio CC50/EC50 [20]: >1.25; Ratio CC50/EC50 [21]: 1.57 |
| Clc1ccc2c(c1)nc(Cn1nnc3ccccc31)n2CC[C@@H]1CCCN2CCCC[C@H]12 |  |  |  |  |  |  |  |  |  |  |  |  | EC50 [13]: 0.02 µM |
| CCC(=O)Nc1ccc(-n2nc3cc(C)c(C)cc3n2)cc1 |  |  |  |  |  |  |  |  |  |  |  |  | EC50 (Coxsackievirus B2): 10 µM |
| O=c1[nH]c2cc(S(=O)(=O)n3nnc4cc(Cl)ccc43)ccc2o1 |  |  |  |  |  |  |  |  |  |  |  |  | inhibition at 170 µM (Semliki Forest virus): 99% |
